# Experiments:
# [1] = Determination of pharmacokinetic parameters following intravenous and oral administration; type: in vivo, rat; settings: rats, intravenous administration of 0.3 mg/kg and peroral administration of 1 mg/kg
# Method: The pharmacokinetic parameters of the compounds of the formula (I) according to the invention are determined in male CD-1 mice, male Wistar rats and female beagles. Intravenous administration is via a formulation of species-specific plasma/DMSO in the case of mice and rats and via a water/PEG400/ethanol formulation in the case of dogs. For all species, oral administration of the dissolved substance via gavage is carried out based on a water/PEG400/ethanol formulation. The removal of blood from rats is simplified by inserting a silicone catheter into the right Vena jugularis externa prior to substance administration. The surgical intervention takes place at least one day prior to the experiment with isofluran anesthesia and administration of an analgetic (atropine/rimadyl (3/1) 0.1 ml s.c.). The removal of blood (generally more than 10 times) takes place in a time window which contains terminal times of at least 24 to a maximum of 72 hours after administration of the substance. The blood is removed into heparinized tubes. The blood plasma is then obtained by centrifugation; if required, it can be stored at −20° C. until further processing.
# An internal standard (this can also be a chemically unrelated substance) is added to the samples of the compounds of the formula (I) according to the invention, calibration samples and qualifiers, and the protein is precipitated using excess acetonitrile. After addition of a buffer solution, which is adapted to the LC conditions, and subsequent vortexing, the mixture is centrifuged at 1000 g. The supernatant is examined by LC-MS/MS using C18-reversed-phase columns and variable mobile phase mixtures. The substances are quantified by peak heights or areas using extracted ion chromatograms of specific selected ion monitoring experiments.
# The plasma concentration/time plots determined are used to calculate the pharmacokinetic parameters such as AUC (Area Under the Curve), Cmax, t1/2 (terminal half life), F (bioavailability), MRT (mean residence time) and CL (clearance), using a validated pharmacokinetic calculation program.
# Since the substance quantification is performed in plasma, it is necessary to determine the blood/plasma distribution of the substance in order to be able to adjust the pharmacokinetic parameters correspondingly. For this purpose, a defined amount of substance is incubated in heparinized whole blood of the species in question in a rocking roller mixer for 20 min. After centrifugation at 1000 g, the plasma concentration is measured (by means of LC-MS/MS; see above) and determined by calculating the quotient of the Cblood/Cplasma values.
# guanylate cyclase = biological target: T1, guanylate cyclase (Rattus norvegicus, UniProt P19686+P20595); assay: Effect on a recombinant guanylate cyclase reporter cell line; type: cell-based
# T1 construct: expressed in transfected cells; host or cells: recombinant reporter cell line
# T1 sequence (P20595 1-619): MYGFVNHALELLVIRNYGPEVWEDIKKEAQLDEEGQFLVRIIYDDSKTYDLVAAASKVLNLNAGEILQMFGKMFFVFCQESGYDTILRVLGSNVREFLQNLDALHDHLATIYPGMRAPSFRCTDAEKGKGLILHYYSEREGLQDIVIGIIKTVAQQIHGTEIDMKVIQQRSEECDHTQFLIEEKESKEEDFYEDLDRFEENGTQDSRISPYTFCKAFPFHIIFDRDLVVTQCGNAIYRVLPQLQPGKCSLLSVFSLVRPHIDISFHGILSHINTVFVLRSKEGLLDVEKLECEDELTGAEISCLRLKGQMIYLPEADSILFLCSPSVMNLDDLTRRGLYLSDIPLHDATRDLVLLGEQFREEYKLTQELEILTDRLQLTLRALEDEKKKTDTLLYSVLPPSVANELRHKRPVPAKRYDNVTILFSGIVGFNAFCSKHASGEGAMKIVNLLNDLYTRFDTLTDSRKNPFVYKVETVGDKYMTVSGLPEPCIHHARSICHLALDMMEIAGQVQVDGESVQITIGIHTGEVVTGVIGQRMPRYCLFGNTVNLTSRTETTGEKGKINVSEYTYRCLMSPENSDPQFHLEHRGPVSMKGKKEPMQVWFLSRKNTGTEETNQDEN
# T1 sequence (P19686 1-690): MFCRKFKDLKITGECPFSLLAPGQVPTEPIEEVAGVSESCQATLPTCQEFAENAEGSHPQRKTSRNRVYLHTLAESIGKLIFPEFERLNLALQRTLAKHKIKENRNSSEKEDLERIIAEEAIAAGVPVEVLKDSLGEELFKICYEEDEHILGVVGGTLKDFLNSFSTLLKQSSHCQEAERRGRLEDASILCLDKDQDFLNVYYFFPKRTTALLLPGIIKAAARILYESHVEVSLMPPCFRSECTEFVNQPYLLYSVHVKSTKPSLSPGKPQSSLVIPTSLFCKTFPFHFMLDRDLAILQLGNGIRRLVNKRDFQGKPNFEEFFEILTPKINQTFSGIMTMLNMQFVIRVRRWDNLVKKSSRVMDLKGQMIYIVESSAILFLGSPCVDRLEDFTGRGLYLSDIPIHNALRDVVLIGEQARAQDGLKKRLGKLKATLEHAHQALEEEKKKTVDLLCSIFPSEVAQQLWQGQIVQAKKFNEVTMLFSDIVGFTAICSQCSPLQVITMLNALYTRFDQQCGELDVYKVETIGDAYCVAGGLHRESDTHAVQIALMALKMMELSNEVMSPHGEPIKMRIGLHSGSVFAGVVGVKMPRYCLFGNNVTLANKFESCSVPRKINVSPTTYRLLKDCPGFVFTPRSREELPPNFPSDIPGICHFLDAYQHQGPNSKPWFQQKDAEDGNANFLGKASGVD
# Method: The cellular activity of the compounds according to the invention is determined using a recombinant guanylate cyclase reporter cell line, as described in F. Wunder et al., Anal. Biochem. 339, 104-112 (2005).
smiles,measurement,setting,value
"CC1(C(F)(F)F)C(=O)Nc2nc(-c3nn(Cc4ccccc4F)c4ncc(F)cc34)nc(NCCC(F)(F)F)c21 (single isomer, unassigned) [Example 1-1, 2-[5-Fluoro-1-(2-fluorobenzyl)-1H-pyrazolo[3,4-b]pyridin-3-yl]-5-methyl-5-(trifluoromethyl)-4-[(3,3,3-trifluoropropyl)amino]-5,7-dihydro-6H-pyrrolo[2,3-d]pyrimidin-6-one]",MRT,"[1]; male, Wistar, rat, plasma",6.4 h
same,half-life,"[1]; male, Wistar, rat, plasma",468 min
same,AUCnorm,[1],0.83 kg·h/L
same,CLblood,[1],1.42 L/h/kg
same,F,[1],39.0%
same,MEC (minimum effective concentration),guanylate cyclase,0.1 µM

# From patent publication US20160002267A1, “BENZYL-SUBSTITUTED PYRAZOLOPYRIDINES AND USE THEREOF” (BAYER PHARMA AKTIENGESELLSCHAFT, priority 2013, published 2016)
